The record followed here is BindingDB's records for PubMed 2385234 (Universit&Eacute, 1990).

As a reminder, the Ki is a measure of affinity in units of concentration, obtained from inhibition or displacement. A low value points to tighter binding.

The target of test [1] is T1, Muscarinic acetylcholine receptor M4 (Mus musculus, UniProt P32211).
T1 sequence (P32211 whole entry): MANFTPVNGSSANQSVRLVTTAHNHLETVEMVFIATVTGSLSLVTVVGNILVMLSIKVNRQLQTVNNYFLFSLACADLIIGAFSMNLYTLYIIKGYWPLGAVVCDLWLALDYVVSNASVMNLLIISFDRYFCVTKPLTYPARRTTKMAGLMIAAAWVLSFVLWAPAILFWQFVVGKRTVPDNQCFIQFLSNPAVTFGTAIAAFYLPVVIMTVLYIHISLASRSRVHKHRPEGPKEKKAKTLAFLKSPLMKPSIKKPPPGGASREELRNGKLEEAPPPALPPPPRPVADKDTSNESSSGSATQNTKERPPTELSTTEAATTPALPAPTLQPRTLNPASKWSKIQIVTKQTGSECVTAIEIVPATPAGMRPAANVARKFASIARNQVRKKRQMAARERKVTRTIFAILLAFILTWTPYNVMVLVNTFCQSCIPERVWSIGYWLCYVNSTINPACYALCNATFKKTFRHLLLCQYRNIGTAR

Test [2] has as its target Muscarinic acetylcholine receptor M3 (Rattus norvegicus, UniProt P08483).
In test [3] the target is T2, Muscarinic acetylcholine receptor M2 (Rattus norvegicus, UniProt P10980).
T2 sequence (P10980 whole entry): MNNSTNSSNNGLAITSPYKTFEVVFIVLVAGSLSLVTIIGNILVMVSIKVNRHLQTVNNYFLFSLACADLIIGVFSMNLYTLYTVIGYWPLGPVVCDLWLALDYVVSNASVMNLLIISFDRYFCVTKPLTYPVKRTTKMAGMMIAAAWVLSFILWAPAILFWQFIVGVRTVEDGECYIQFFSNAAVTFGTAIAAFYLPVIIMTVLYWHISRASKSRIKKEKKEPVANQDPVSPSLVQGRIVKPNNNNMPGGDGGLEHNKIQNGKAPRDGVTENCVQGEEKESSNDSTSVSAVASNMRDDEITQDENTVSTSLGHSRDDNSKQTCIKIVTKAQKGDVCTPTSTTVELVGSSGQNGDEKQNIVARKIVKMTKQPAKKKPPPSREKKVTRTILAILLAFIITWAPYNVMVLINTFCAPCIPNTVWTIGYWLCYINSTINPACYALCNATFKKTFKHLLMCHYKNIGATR

Test [4] has as its target T3, Muscarinic acetylcholine receptor M4 (Rattus norvegicus, UniProt P08485).
T3 sequence (P08485 whole entry): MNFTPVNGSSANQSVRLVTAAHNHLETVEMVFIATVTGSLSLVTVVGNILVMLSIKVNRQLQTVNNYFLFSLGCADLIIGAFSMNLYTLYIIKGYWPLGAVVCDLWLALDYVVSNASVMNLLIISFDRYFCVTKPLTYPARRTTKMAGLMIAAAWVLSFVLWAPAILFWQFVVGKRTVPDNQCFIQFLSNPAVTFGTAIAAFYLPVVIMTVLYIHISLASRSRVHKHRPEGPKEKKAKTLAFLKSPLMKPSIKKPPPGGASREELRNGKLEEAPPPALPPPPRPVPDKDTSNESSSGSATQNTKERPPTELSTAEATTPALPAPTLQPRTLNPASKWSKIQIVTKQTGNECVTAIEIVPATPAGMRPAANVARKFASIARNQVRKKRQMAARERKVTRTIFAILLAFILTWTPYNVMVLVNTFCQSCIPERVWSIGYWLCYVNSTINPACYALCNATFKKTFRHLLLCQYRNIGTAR

Several values for one entry are separate records, joined by “and”; a condition that tells them apart may be missing. Identical values can stand only once.

Sequence of Muscarinic acetylcholine receptor M3 (P08483 whole entry): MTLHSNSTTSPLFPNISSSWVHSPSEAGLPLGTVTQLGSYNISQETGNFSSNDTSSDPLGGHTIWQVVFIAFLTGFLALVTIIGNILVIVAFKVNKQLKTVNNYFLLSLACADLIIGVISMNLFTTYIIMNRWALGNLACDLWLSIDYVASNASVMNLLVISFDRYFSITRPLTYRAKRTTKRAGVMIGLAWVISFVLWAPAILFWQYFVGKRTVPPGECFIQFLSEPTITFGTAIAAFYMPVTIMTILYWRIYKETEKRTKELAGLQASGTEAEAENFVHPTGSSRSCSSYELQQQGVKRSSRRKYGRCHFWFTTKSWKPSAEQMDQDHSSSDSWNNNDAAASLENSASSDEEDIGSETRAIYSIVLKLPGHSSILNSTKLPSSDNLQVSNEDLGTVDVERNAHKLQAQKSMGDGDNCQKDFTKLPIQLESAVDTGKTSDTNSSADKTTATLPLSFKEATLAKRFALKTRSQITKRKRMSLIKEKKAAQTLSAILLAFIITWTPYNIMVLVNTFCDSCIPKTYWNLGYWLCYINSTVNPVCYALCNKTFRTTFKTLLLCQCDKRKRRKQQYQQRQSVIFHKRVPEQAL

For `CN1CCN(CC(=O)N2c3ccccc3C(=O)Nc3cccnc32)CC1` [11-[(4-methylpiperazin-1-yl)acetyl]-5,11-dihydro-6H-pyrido[2,3-b][1,4]benzodiazepin-6-one], the Ki in test [1] is 400 nM.

As for `C[C@H]1OC(=O)C2C[C@H]3CCCC[C@@H]3[C@@H](/C=C/[C@@H]3CCC[C@H](C)N3C)C21` (some centres not stated) [HIMBACINE], the Ki in test [2] was 900 nM; in test [1], 60 nM; in test [3], 15 nM; in test [4] it was 46 nM and 50 nM.

Turning to `C[N+]1(C)CCC(OC(=O)C(c2ccccc2)c2ccccc2)CC1`, the Ki in test [1] is 5.6 nM; in test [4] it was 5.2 nM and 5.6 nM.

With `COc1ccccc1CNCCCCCCNCCCCCCCCNCCCCCCNCc1ccccc1OC` [METHOCTRAMINE], the Ki in test [2] is 3000 nM; in test [1] it was 160 nM; in test [4], 130 nM and 100 nM.

As to `O[Si](CCCN1CCCCC1)(c1ccccc1)C1CCCCC1` (configuration not stated) [HHSiD], the Ki was 50 nM in test [2]; 100 nM in test [1]; 93 nM and 110 nM in test [4].

Turning to `CCN(CC)CC1CCCCN1CC(=O)N1c2ccccc2C(=O)Nc2cccnc21` (configuration not stated) [(AF-DX 116) 11-[2-(2-Diethylaminomethyl-piperidin-1-yl)-acetyl]-5,11-dihydro-benzo[e]pyrido[3,2-b][1,4]diazepin-6-one], the Ki in test [2] is 4800 nM; in test [1], 1600 nM; in test [3] it was 74 nM; in test [4] it was 1700 nM and 1500 nM.
